Among the data in patent publication US11466286B2, “Methods and compositions for conferring and/or enhancing herbicide tolerance using protoporphyrinogen oxidase or variant thereof” (FarmHannong Co., Ltd., priority 2016, dated 2022) are IC50 and Vmax values, retold here.

SMILES strings stand for the structures.

Experiment [1] concerns the target CyPPO10 (Thermosynechococcus elongatus BP-1 PPO, SEQ ID NO: 2) variant R89A + F360M, MBP fusion (Thermosynechococcus vestitus, UniProt Q8DLV2, F360M/R89A). As to the kind of experiment: biochemical. The note with it: herbicide 0-5,000 nM, 50 μM substrate.
Experiment [2] concerns the target CyPPO10 (Thermosynechococcus elongatus BP-1 PPO, SEQ ID NO: 2), wild type, MBP fusion (Thermosynechococcus vestitus, UniProt Q8DLV2). As to the kind of experiment: PPO inhibition assay. The class given is biochemical.
Experiment [3] deals with CyPPO13 (Synechococcus sp. JA-3-3Ab PPO, SEQ ID NO: 4), wild type, MBP fusion. As to the kind of experiment: PPO inhibition assay. It is filed as biochemical. The note with it: herbicide 0-5,000 nM, 50 μM substrate.
Experiment [4] deals with CyPPO10 (Thermosynechococcus elongatus BP-1 PPO, SEQ ID NO: 2) variant R89A + F360I, MBP fusion (Thermosynechococcus vestitus, UniProt Q8DLV2, F360I/R89A). As to the kind of experiment: biochemical.
Chain of CyPPO10 (Thermosynechococcus elongatus BP-1 PPO, SEQ ID NO: 2) variant R89A + F360I, MBP fusion (Q8DLV2 entry or part of it R89A/F360I): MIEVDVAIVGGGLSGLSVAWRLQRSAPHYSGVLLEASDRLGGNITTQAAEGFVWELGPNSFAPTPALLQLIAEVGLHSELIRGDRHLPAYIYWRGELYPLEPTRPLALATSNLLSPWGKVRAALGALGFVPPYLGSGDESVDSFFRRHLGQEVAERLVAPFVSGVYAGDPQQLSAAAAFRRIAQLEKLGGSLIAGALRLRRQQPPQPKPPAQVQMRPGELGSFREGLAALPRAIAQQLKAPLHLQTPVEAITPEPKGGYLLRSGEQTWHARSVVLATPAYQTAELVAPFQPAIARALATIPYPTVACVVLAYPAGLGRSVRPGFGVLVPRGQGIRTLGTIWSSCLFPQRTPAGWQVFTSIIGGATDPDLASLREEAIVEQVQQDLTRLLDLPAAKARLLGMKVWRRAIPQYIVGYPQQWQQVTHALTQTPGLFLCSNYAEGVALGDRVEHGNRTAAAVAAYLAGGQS
For experiment [5], the target named is CyPPO10 (Thermosynechococcus elongatus BP-1 PPO, SEQ ID NO: 2) variant F360I, MBP fusion (Thermosynechococcus vestitus, UniProt Q8DLV2, F360I). As to the kind of experiment: PPO inhibition assay. It is filed as biochemical.
Chain of CyPPO10 (Thermosynechococcus elongatus BP-1 PPO, SEQ ID NO: 2) variant F360I, MBP fusion (Q8DLV2 entry or part of it F360I): as the sequence (Q8DLV2 entry or part of it R89A/F360I) above, with A89R counted along it
Experiment [6] concerns the target CyPPO10 (Thermosynechococcus elongatus BP-1 PPO, SEQ ID NO: 2) variant F360M, MBP fusion (Thermosynechococcus vestitus, UniProt Q8DLV2, F360M). As to the kind of experiment: biochemical.
Experiment [7] relates to CyPPO13 (Synechococcus sp. JA-3-3Ab protoporphyrinogen oxidase, wild type, SEQ ID NO: 4), MBP fusion. As to the kind of experiment: Michaelis-Menten kinetics of purified PPO. It is filed as biochemical. The note with it: protoporphyrinogen IX oxidation, room temperature, pH 8.0.
For experiment [8], the target named is T1, CyPPO10 (Thermosynechococcus elongatus BP-1 protoporphyrinogen oxidase, wild type, SEQ ID NO: 2), MBP fusion (Thermosynechococcus vestitus, UniProt Q8DLV2).
T1 construct: kinetics with protoporphyrinogen IX
T1 sequence (Q8DLV2 1-467): as the sequence (Q8DLV2 entry or part of it R89A/F360I) above, with A89R, I360F counted along it
As to the kind of experiment: Michaelis-Menten kinetics of purified PPO. The class given is biochemical. The note with it: protoporphyrinogen IX oxidation, room temperature, pH 8.0. The procedure:
The enzyme activities of PPO protein and PPO protein variants were examined, and inhibition assay by PPO-inhibiting herbicides was conducted. It was confirmed that the PPO protein has low water-solubility, but in case of being expressed as a fusion protein with MBP (maltose binding protein) (MBP-PPO), the PPO protein is able to be stably expressed as water-soluble form. Therefore, the wild type and variant proteins which were expressed in the form of fusion protein with MBP were used in the present test (refer to FIG. 4).
At first, a substrate of PPO protein, Protoporphyrinogen IX was synthesized. This process was performed in the space where nitrogen gas is streamed. […]
Two hundred microliters (200 μl) of reaction mixture containing a purified PPO protein were placed in 96 well plates, and preincubated for 30 min at room temperature to reduce the oxygen concentration by the reaction of glucose oxidase-catalase. […] The reaction proceeded at room temperature for 30 min and the fluorescence of protoporphyrin IX was measured using Microplate reader (Sense, Hidex) (excitation: 405 nm; emission: 633 nm). […] To this, 2.7N HCl was added, and the absorbance at 408 nm was measured. A standard curve was generated using standard protoporphyrin IX, and the PPO activity was measured by calibration of protoporphyrin IX using the standard curve of protoporphyrin IX. […]

For experiment [9], the target named is A. thaliana PPO1 (AtPPO1) (Arabidopsis thaliana, UniProt P55826). As to the kind of experiment: Michaelis-Menten kinetics of PPO (plant control). It is filed as biochemical. The note with it: protoporphyrinogen IX oxidation.
Chain of A. thaliana PPO1 (AtPPO1) (P55826 35-537): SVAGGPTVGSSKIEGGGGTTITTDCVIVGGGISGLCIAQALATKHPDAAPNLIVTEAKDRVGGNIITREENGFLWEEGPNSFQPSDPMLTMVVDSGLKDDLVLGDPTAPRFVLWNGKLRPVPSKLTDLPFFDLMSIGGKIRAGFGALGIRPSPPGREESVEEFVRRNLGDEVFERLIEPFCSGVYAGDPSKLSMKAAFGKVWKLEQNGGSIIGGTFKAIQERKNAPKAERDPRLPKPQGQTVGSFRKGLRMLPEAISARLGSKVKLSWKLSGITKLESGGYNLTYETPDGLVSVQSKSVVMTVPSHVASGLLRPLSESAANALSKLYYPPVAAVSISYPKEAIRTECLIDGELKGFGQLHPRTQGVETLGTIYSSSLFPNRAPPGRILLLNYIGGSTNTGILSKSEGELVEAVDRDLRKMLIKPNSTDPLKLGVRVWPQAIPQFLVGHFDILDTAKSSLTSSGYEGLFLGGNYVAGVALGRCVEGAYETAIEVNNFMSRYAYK
Experiment [10] relates to Amaranthus PPO1. As to the kind of experiment: Michaelis-Menten kinetics of PPO (plant control). The note with it: protoporphyrinogen IX oxidation. The class given is biochemical.

Chain of CyPPO10 (Thermosynechococcus elongatus BP-1 PPO, SEQ ID NO: 2) variant R89A + F360M, MBP fusion (Q8DLV2 entry or part of it R89A/F360M): as the sequence (Q8DLV2 entry or part of it R89A/F360I) above, with I360M counted along it
Chain of CyPPO10 (Thermosynechococcus elongatus BP-1 PPO, SEQ ID NO: 2), wild type, MBP fusion (Q8DLV2 1-467): as the sequence (Q8DLV2 entry or part of it R89A/F360I) above, with A89R, I360F counted along it
Chain of CyPPO10 (Thermosynechococcus elongatus BP-1 PPO, SEQ ID NO: 2) variant F360M, MBP fusion (Q8DLV2 entry or part of it F360M): as the sequence (Q8DLV2 entry or part of it R89A/F360I) above, with A89R, I360M counted along it

For the molecule `C=CCOC(=O)C(C)(C)OC(=O)c1cc(-n2c(=O)cc(C(F)(F)F)n(C)c2=O)ccc1Cl` [Butafenacil], the IC50 in [1] is 674 nM; in experiment [2] it was 8 nM; in experiment [3], 37 nM; in experiment [4], 1320 nM; in experiment [5], 268 nM; in [6], 24 nM.

With `C=Cc1c2[nH]c(c1C)Cc1[nH]c(c(CCC(=O)O)c1C)Cc1[nH]c(c(C)c1CCC(=O)O)Cc1[nH]c(c(C)c1C=C)C2` [Protoporphyrinogen IX], the Vmax in experiment [7] is 341.4 ± 14 μM mg protein^−1 min^−1; in experiment [8], 949.1 ± 64 μM mg protein^−1 min^−1; in [9] it was 134.4 ± 19 μM mg protein^−1 min^−1; in experiment [10] it was 57 ± 7 μM mg protein^−1 min^−1.
